# Assay results: patent US20080004344A1, “Novel Salts of Fumaric Acid Monoalkylesters and Their Pharmaceutical Use” (ADITECH PHARMA AB, priority 2004, published 2008)
# Key:
# [1] = tested on: IL-10; test: Monocyte stimulation cultures of PBMC (LPS or unstimulated), IL-10 ELISA
# [2] = pH-value of the solution on dissolving in water; assay type: physicochemical; settings: dissolved in water
# Method: When strontium monomethyl fumarate is dissolved in water, the pH-value of the solution raises to alkaline values (pH˜9-10), owing to production of hydroxyl ions: Sr(C5H5O4)2+2H2O→Sr^2+(aq)+2C5H6O4(aq)+2OH^−(aq) (2)
# [3] = tested on: IL-2; test: T cell specific stimulation of PBMC (CD3/CD28 beads), IL-2 ELISA; assay type: cell-based, human; settings: for IL-2 Conc: CD3/CD28 beads
# Method: (§1) PBMC were isolated from blood of two healthy volunteers (person) via Ficoll density gradient centrifugation. The purified cells were used in parallel cultures for monocyte stimulations using Lipopolysaccharide (LPS) and T cell specific stimulations using bead-coupled antibodies directed against the T cell activation antigens CD3 and CD28.
# (§2) Cultures were incubated in a tissue culture incubator at 37° C., 5% CO2 for 20 h, culture supernatants were harvested at the end of the culture period and used for cytokine quantitation. The measured cytokines in cell culture supernatants from either monocyte stimulation cultures (IL-8, IL-10, TNF-α) or T cell stimulation cultures (IL-2, IL-4) were quantitated with ELISAs (Becton Dickinson) according to the manufacturers instructions. The resulting optical density (OD) was measured on a Packard Fusion Reader and OD values were translated to cytokine concentrations (in pg/ml) with the use of the Fusion Reader Data Analysis Software.
# [4] = tested on: TNF-alpha; test: Monocyte stimulation cultures of PBMC (LPS or unstimulated), TNF-alpha ELISA; assay type: cell-based, human
# Method: as §1, §2
# [5] = tested on: IL-8; test: Monocyte stimulation cultures of PBMC (LPS or unstimulated), IL-8 ELISA
# [6] = tested on: IL-4; test: T cell specific stimulation of PBMC (CD3/CD28 beads), IL-4 ELISA; assay type: cell-based, human; settings: for IL-4 Conc: CD3/CD28 beads
# Method: as §1, §2
# [7] = LPS 1 ng/ml, 10 μM MMF, Donor 1
# [8] = LPS 1 ng/ml, 10 μM MMF, Donor 2
# [9] = LPS 1 ng/ml, 30 μM MMF, Donor 1
# [10] = LPS 1 ng/ml, 30 μM MMF, Donor 2
# [11] = LPS 1 ng/ml, 100 μM MMF, Donor 1
# [12] = LPS 1 ng/ml, 100 μM MMF, Donor 2
# [13] = LPS 1 ng/ml, 300 μM MMF, Donor 1
# [14] = LPS 1 ng/ml, 300 μM MMF, Donor 2
# [15] = as single stimulant (unstimulated monocytes)
# [16] = no LPS printed for these rows, 1 μM MMF, Donor 1
# [17] = no LPS printed for these rows, 1 μM MMF, Donor 2
# [18] = no LPS printed for these rows, 3 μM MMF, Donor 1
# [19] = no LPS printed for these rows, 3 μM MMF, Donor 2
# [20] = no LPS printed for these rows, 10 μM MMF, Donor 1
# [21] = no LPS printed for these rows, 10 μM MMF, Donor 2
# [22] = no LPS printed for these rows, 30 μM MMF, Donor 1
# [23] = no LPS printed for these rows, 30 μM MMF, Donor 2
# [24] = no LPS printed for these rows, 100 μM MMF, Donor 1
# [25] = no LPS printed for these rows, 100 μM MMF, Donor 2
# [26] = no LPS printed for these rows, 300 μM MMF, Donor 1
# [27] = no LPS printed for these rows, 300 μM MMF, Donor 2
# [28] = no LPS printed for these rows, 1 mM MMF, Donor 1
# [29] = no LPS printed for these rows, 1 mM MMF, Donor 2
# [30] = no LPS printed for these rows, 3 mM MMF, Donor 1
# [31] = no LPS printed for these rows, 3 mM MMF, Donor 2
substance,measurement,setting,value
di-strontium-tetrakis-(mono methyl fumarate)-tetra hydrate [strontium MMF],IL-10 Conc,"[1]; LPS 1 ng/ml, 1 μM MMF, Donor 1",11 pg/mL
same,IL-10 Conc,"[1]; LPS 1 ng/ml, 1 μM MMF, Donor 2",11 pg/mL
same,IL-10 Conc,"[1]; LPS 1 ng/ml, 3 μM MMF, Donor 1",13 pg/mL
same,IL-10 Conc,"[1]; LPS 1 ng/ml, 3 μM MMF, Donor 2",5 pg/mL
same,IL-10 Conc,[1]; [7],106 pg/mL
same,IL-10 Conc,[1]; [8],13 pg/mL
same,IL-10 Conc,[1]; [9],62 pg/mL
same,IL-10 Conc,[1]; [10],32 pg/mL
same,IL-10 Conc,[1]; [11],7 pg/mL
same,IL-10 Conc,[1]; [12],0 pg/mL
same,IL-10 Conc,[1]; [13],0 pg/mL
same,IL-10 Conc,[1]; [14],0 pg/mL
same,IL-10 Conc,"[1]; LPS 1 ng/ml, 1 mM MMF, Donor 1",2 pg/mL
same,IL-10 Conc,"[1]; LPS 1 ng/ml, 1 mM MMF, Donor 2",0 pg/mL
same,IL-10 Conc,"[1]; LPS 1 ng/ml, 3 mM MMF, Donor 1",1 pg/mL
same,IL-10 Conc,"[1]; LPS 1 ng/ml, 3 mM MMF, Donor 2",0 pg/mL
same,effect on IL-10 secretion,[1]; LPS-stimulated monocytes,co-induced
same,effect on IL-10 secretion,[1]; [15],induced
same,IL-10 Conc,[1]; [16],775 pg/mL
same,IL-10 Conc,[1]; [17],1125 pg/mL
same,IL-10 Conc,[1]; [18],886 pg/mL
same,IL-10 Conc,[1]; [19],1385 pg/mL
same,IL-10 Conc,[1]; [20],1026 pg/mL
same,IL-10 Conc,[1]; [21],2035 pg/mL
same,IL-10 Conc,[1]; [22],351 pg/mL
same,IL-10 Conc,[1]; [23],800 pg/mL
same,IL-10 Conc,[1]; [24],7 pg/mL
same,IL-10 Conc,[1]; [25],40 pg/mL
same,IL-10 Conc,[1]; [26],0 pg/mL
same,IL-10 Conc,[1]; [27],0 pg/mL
same,IL-10 Conc,[1]; [28],0 pg/mL
same,IL-10 Conc,[1]; [29],0 pg/mL
same,IL-10 Conc,[1]; [30],0 pg/mL
same,IL-10 Conc,[1]; [31],0 pg/mL
same,pH-value of the solution,[2],9-10
same,IL-2 Conc,"[3]; 1 μM MMF, Donor 1",5787 pg/mL
same,IL-2 Conc,"[3]; 1 μM MMF, Donor 2",2559 pg/mL
same,IL-2 Conc,"[3]; 3 μM MMF, Donor 1",4699 pg/mL
same,IL-2 Conc,"[3]; 3 μM MMF, Donor 2",1754 pg/mL
same,IL-2 Conc,"[3]; 10 μM MMF, Donor 1",5901 pg/mL
same,IL-2 Conc,"[3]; 10 μM MMF, Donor 2",1905 pg/mL
same,IL-2 Conc,"[3]; 30 μM MMF, Donor 1",4592 pg/mL
same,IL-2 Conc,"[3]; 30 μM MMF, Donor 2",2079 pg/mL
same,IL-2 Conc,"[3]; 100 μM MMF, Donor 1",170 pg/mL
same,IL-2 Conc,"[3]; 100 μM MMF, Donor 2",65 pg/mL
same,IL-2 Conc,"[3]; 300 μM MMF, Donor 1",2 pg/mL
same,IL-2 Conc,"[3]; 300 μM MMF, Donor 2",0 pg/mL
same,IL-2 Conc,"[3]; 1 mM MMF, Donor 1",0 pg/mL
same,IL-2 Conc,"[3]; 1 mM MMF, Donor 2",1 pg/mL
same,IL-2 Conc,"[3]; 3 mM MMF, Donor 1",1 pg/mL
same,IL-2 Conc,"[3]; 3 mM MMF, Donor 2",3 pg/mL
same,effect on IL-2 secretion,[3]; after T-cell stimulation,co-induction
same,TNF-alpha Conc,"[4]; LPS 1 ng/ml, 1 μM MMF, Donor 1",464 pg/mL
same,TNF-alpha Conc,"[4]; LPS 1 ng/ml, 1 μM MMF, Donor 2",459 pg/mL
same,TNF-alpha Conc,"[4]; LPS 1 ng/ml, 3 μM MMF, Donor 1",631 pg/mL
same,TNF-alpha Conc,"[4]; LPS 1 ng/ml, 3 μM MMF, Donor 2",650 pg/mL
same,TNF-alpha Conc,[4]; [7],1624 pg/mL
same,TNF-alpha Conc,[4]; [8],2559 pg/mL
same,TNF-alpha Conc,[4]; [9],1787 pg/mL
same,TNF-alpha Conc,[4]; [10],3289 pg/mL
same,TNF-alpha Conc,[4]; [11],250 pg/mL
same,TNF-alpha Conc,[4]; [12],711 pg/mL
same,TNF-alpha Conc,[4]; [13],20 pg/mL
same,TNF-alpha Conc,[4]; [14],96 pg/mL
same,TNF-alpha Conc,"[4]; LPS 1 ng/ml, 1 mM MMF, Donor 1",0 pg/mL
same,TNF-alpha Conc,"[4]; LPS 1 ng/ml, 1 mM MMF, Donor 2",11 pg/mL
same,TNF-alpha Conc,"[4]; LPS 1 ng/ml, 3 mM MMF, Donor 1",0 pg/mL
same,TNF-alpha Conc,"[4]; LPS 1 ng/ml, 3 mM MMF, Donor 2",0 pg/mL
same,effect on TNF-alpha secretion,[4]; LPS-stimulated monocytes,co-stimulatory
same,effect on TNF-alpha secretion,[4]; [15],induced
same,TNF-alpha Conc,[4]; [16],29 pg/mL
same,TNF-alpha Conc,[4]; [17],13 pg/mL
same,TNF-alpha Conc,[4]; [18],38 pg/mL
same,TNF-alpha Conc,[4]; [19],10 pg/mL
same,TNF-alpha Conc,[4]; [20],570 pg/mL
same,TNF-alpha Conc,[4]; [21],47 pg/mL
same,TNF-alpha Conc,[4]; [22],1343 pg/mL
same,TNF-alpha Conc,[4]; [23],682 pg/mL
same,TNF-alpha Conc,[4]; [24],313 pg/mL
same,TNF-alpha Conc,[4]; [25],236 pg/mL
same,TNF-alpha Conc,[4]; [26],3 pg/mL
same,TNF-alpha Conc,[4]; [27],12 pg/mL
same,TNF-alpha Conc,[4]; [28],0 pg/mL
same,TNF-alpha Conc,[4]; [29],3 pg/mL
same,TNF-alpha Conc,[4]; [30],0 pg/mL
same,TNF-alpha Conc,[4]; [31],0 pg/mL
same,IL-8 Conc,"[5]; LPS 1 ng/ml, 1 μM MMF, Donor 1",35264 pg/mL
same,IL-8 Conc,"[5]; LPS 1 ng/ml, 1 μM MMF, Donor 2",25146 pg/mL
same,IL-8 Conc,"[5]; LPS 1 ng/ml, 3 μM MMF, Donor 1",26255 pg/mL
same,IL-8 Conc,"[5]; LPS 1 ng/ml, 3 μM MMF, Donor 2",24672 pg/mL
same,IL-8 Conc,[5]; [7],1259306 pg/mL
same,IL-8 Conc,[5]; [8],70691 pg/mL
same,IL-8 Conc,[5]; [9],1369127 pg/mL
same,IL-8 Conc,[5]; [10],1357587 pg/mL
same,IL-8 Conc,[5]; [11],80524 pg/mL
same,IL-8 Conc,[5]; [12],1285660 pg/mL
same,IL-8 Conc,[5]; [13],7135 pg/mL
same,IL-8 Conc,[5]; [14],31370 pg/mL
same,IL-8 Conc,"[5]; LPS 1 ng/ml, 1 mM MMF, Donor 1",558 pg/mL
same,IL-8 Conc,"[5]; LPS 1 ng/ml, 1 mM MMF, Donor 2",2825 pg/mL
same,IL-8 Conc,"[5]; LPS 1 ng/ml, 3 mM MMF, Donor 1",86 pg/mL
same,IL-8 Conc,"[5]; LPS 1 ng/ml, 3 mM MMF, Donor 2",424 pg/mL
same,effect on IL-8 secretion,[5]; LPS stimulated monocytes,did not induce a co-stimulation
same,IL-8 Conc,[5]; [16],138285 pg/mL
same,IL-8 Conc,[5]; [17],241352 pg/mL
same,IL-8 Conc,[5]; [18],219130 pg/mL
same,IL-8 Conc,[5]; [19],349450 pg/mL
same,IL-8 Conc,[5]; [20],249798 pg/mL
same,IL-8 Conc,[5]; [21],446267 pg/mL
same,IL-8 Conc,[5]; [22],179340 pg/mL
same,IL-8 Conc,[5]; [23],315447 pg/mL
same,IL-8 Conc,[5]; [24],60312 pg/mL
same,IL-8 Conc,[5]; [25],153980 pg/mL
same,IL-8 Conc,[5]; [26],12354 pg/mL
same,IL-8 Conc,[5]; [27],31040 pg/mL
same,IL-8 Conc,[5]; [28],1696 pg/mL
same,IL-8 Conc,[5]; [29],5363 pg/mL
same,IL-8 Conc,[5]; [30],176 pg/mL
same,IL-8 Conc,[5]; [31],577 pg/mL
same,effect on IL-8 secretion,[5]; unstimulated monocytes,did induce an induction
same,IL-4 Conc,"[6]; 1 μM MMF, Donor 1",60 pg/mL
same,IL-4 Conc,"[6]; 1 μM MMF, Donor 2",12 pg/mL
same,IL-4 Conc,"[6]; 3 μM MMF, Donor 1",70 pg/mL
same,IL-4 Conc,"[6]; 3 μM MMF, Donor 2",10 pg/mL
same,IL-4 Conc,"[6]; 10 μM MMF, Donor 1",69 pg/mL
same,IL-4 Conc,"[6]; 10 μM MMF, Donor 2",12 pg/mL
same,IL-4 Conc,"[6]; 30 μM MMF, Donor 1",92 pg/mL
same,IL-4 Conc,"[6]; 30 μM MMF, Donor 2",20 pg/mL
same,IL-4 Conc,"[6]; 100 μM MMF, Donor 1",3 pg/mL
same,IL-4 Conc,"[6]; 100 μM MMF, Donor 2",0 pg/mL
same,IL-4 Conc,"[6]; 300 μM MMF, Donor 1",0 pg/mL
same,IL-4 Conc,"[6]; 300 μM MMF, Donor 2",0 pg/mL
same,IL-4 Conc,"[6]; 1 mM MMF, Donor 1",0 pg/mL
same,IL-4 Conc,"[6]; 1 mM MMF, Donor 2",0 pg/mL
same,IL-4 Conc,"[6]; 3 mM MMF, Donor 1",0 pg/mL
same,IL-4 Conc,"[6]; 3 mM MMF, Donor 2",0 pg/mL
same,effect on IL-4 secretion,[6]; after T-cell stimulation,co-induction
